# From ChEMBL document CHEMBL1201862, “PubChem BioAssay data set” (2004)
#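 Following 48 hours of exposure in 96-well plates, responses at five concentrations were used to interpolate endpoints linearly. GI50: concentration for 50% inhibition of growth.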 Activity calls are given as the source filed them. Rule as the data show it: active = GI50 up to about 1.1 µM and inactive = higher.
# Legend:
# Experiment in all cases: NCI tumour cell line growth inhibition, 48 h
# [1] = system: DU-145
# [2] = system: 786-0
# [3] = system: COLO 205
# [4] = system: MDA-MB-435
# [5] = system: SK-MEL-2
# [6] = system: SNB-19
# [7] = system: IGROV-1
# [8] = system: A498
# [9] = system: Malme-3M
# [10] = system: M14
# [11] = system: MDA-MB-231
# [12] = system: CAKI-1
# [13] = system: BT-549
# [14] = system: OVCAR-5
# [15] = system: NCI-H226
# [16] = system: NCI/ADR-RES
# [17] = system: OVCAR-3
# [18] = system: SF-539
# [19] = system: EKVX
# [20] = system: U-251
# [21] = system: LOX IMVI
# [22] = system: UACC-62
# [23] = system: HCT-116
# [24] = system: HOP-92
# [25] = system: SK-MEL-28
# [26] = system: T47D
# [27] = system: SN12C
# [28] = system: UACC-257
# [29] = system: Hs-578T
# [30] = system: SR
# [31] = system: SW-620
# [32] = system: HCT-15
# [33] = system: MDA-N
# [34] = system: NCI-H522
# [35] = system: MOLT-4
# [36] = system: HCC 2998
# [37] = system: TK-10
# [38] = system: K562
# [39] = system: UO-31
# [40] = system: HL-60
# [41] = system: SF-295
# [42] = system: PC-3
# [43] = system: RPMI-8226
# [44] = system: OVCAR-8
# [45] = system: MCF7
# [46] = system: KM12
# [47] = system: HT-29
# [48] = system: NCI-H23
# [49] = system: CCRF-CEM
# [50] = system: SK-MEL-5
# [51] = system: A549
# [52] = system: HOP-62
# [53] = system: ACHN
# [54] = system: SF-268
# [55] = system: SNB-75
# [56] = system: OVCAR-4
# [57] = system: NCI-H460
# [58] = system: RXF 393
# [59] = system: SK-OV-3
smiles,measurement,setting,value
Cc1ccc(-c2n[nH]c(=O)n2/N=C\c2ccccc2)cc1,GI50,[1],> 94.2 µM (inactive)
same,GI50,[2],60.3 µM (inactive)
same,GI50,[3],74.1 µM (inactive)
same,GI50,[4],> 100 µM (inactive)
same,GI50,[5],33.8 µM (inactive)
same,GI50,[6],46.3 µM (inactive)
same,GI50,[7],47.5 µM (inactive)
same,GI50,[8],36.6 µM (inactive)
same,GI50,[9],> 91.2 µM (inactive)
same,GI50,[10],> 93.1 µM (inactive)
same,GI50,[11],60.5 µM (inactive)
same,GI50,[12],57.9 µM (inactive)
same,GI50,[13],10.1 µM (inactive)
same,GI50,[14],> 100 µM (inactive)
same,GI50,[15],71.4 µM (inactive)
same,GI50,[16],25.2 µM (inactive)
same,GI50,[17],> 84.1 µM (inactive)
same,GI50,[18],76.2 µM (inactive)
same,GI50,[19],24.9 µM (inactive)
same,GI50,[20],29.8 µM (inactive)
same,GI50,[21],> 100 µM (inactive)
same,GI50,[22],46.8 µM (inactive)
same,GI50,[23],37.5 µM (inactive)
same,GI50,[24],21 µM (inactive)
same,GI50,[25],> 72.8 µM (inactive)
same,GI50,[26],36.6 µM (inactive)
same,GI50,[27],34.5 µM (inactive)
same,GI50,[28],> 100 µM (inactive)
same,GI50,[29],23.7 µM (inactive)
same,GI50,[30],> 72.6 µM (inactive)
same,GI50,[31],> 100 µM (inactive)
same,GI50,[32],72.6 µM
same,GI50,[33],51.1 µM (inactive)
same,GI50,[34],33.8 µM (inactive)
same,GI50,[35],> 79.6 µM (inactive)
same,GI50,[36],> 87.3 µM (inactive)
same,GI50,[37],> 59.2 µM (inactive)
same,GI50,[38],> 76.2 µM (inactive)
same,GI50,[39],> 68.7 µM (inactive)
same,GI50,[40],70.1 µM (inactive)
same,GI50,[41],28.2 µM (inactive)
same,GI50,[42],> 63.2 µM (inactive)
same,GI50,[43],> 86.3 µM (inactive)
same,GI50,[44],53.1 µM (inactive)
same,GI50,[45],56.2 µM (inactive)
same,GI50,[46],54 µM (inactive)
same,GI50,[47],> 91 µM (inactive)
same,GI50,[48],68.9 µM (inactive)
same,GI50,[49],> 80.9 µM (inactive)
same,GI50,[50],75.2 µM (inactive)
same,GI50,[51],> 88.5 µM (inactive)
same,GI50,[52],22.6 µM (inactive)
same,GI50,[53],50.6 µM (inactive)
same,GI50,[54],28.4 µM (inactive)
same,GI50,[55],28.6 µM (inactive)
same,GI50,[56],61.5 µM (inactive)
same,GI50,[57],33.6 µM (inactive)
same,GI50,[58],24.7 µM (inactive)
CC[C@@]1(O)C(=O)OCc2c1cc1n(c2=O)Cc2c-1nc1ccccc1c2/C=N\NC(=O)C1CCCN1 (stereo partly specified),GI50,[1],0.133 µM (active)
same,GI50,[2],0.0461 µM (active)
same,GI50,[3],6.05 µM (inactive)
same,GI50,[4],2 µM (inactive)
same,GI50,[5],11.8 µM (inactive)
same,GI50,[59],442 nM (active)
same,GI50,[6],< 0.0209 µM (active)
same,GI50,[7],5.2 µM (inactive)
same,GI50,[8],0.435 µM (active)
same,GI50,[9],1.79 µM (inactive)
same,GI50,[10],0.147 µM (active)
same,GI50,[11],14.7 µM (inactive)
same,GI50,[12],0.254 µM (active)
same,GI50,[13],1.49 µM (inactive)
same,GI50,[14],4.93 µM (inactive)
same,GI50,[15],0.117 µM (active)
same,GI50,[16],0.513 µM (active)
same,GI50,[17],4.42 µM (inactive)
same,GI50,[18],< 0.01 µM (active)
same,GI50,[19],9.55 µM (inactive)
same,GI50,[20],0.0362 µM (active)
same,GI50,[21],0.09 µM (active)
same,GI50,[22],< 0.0182 µM (active)
same,GI50,[23],0.354 µM (active)
same,GI50,[24],0.601 µM (active)
same,GI50,[25],6.58 µM (inactive)
same,GI50,[26],0.0135 µM (active)
same,GI50,[27],0.0275 µM (active)
same,GI50,[28],3.01 µM (inactive)
same,GI50,[29],22.5 µM (inactive)
same,GI50,[30],< 0.01 µM (active)
same,GI50,[31],0.185 µM (active)
same,GI50,[32],1.31 µM
same,GI50,[33],1.8 µM (inactive)
same,GI50,[34],0.282 µM (active)
same,GI50,[35],0.221 µM (active)
same,GI50,[36],1.98 µM (inactive)
same,GI50,[37],19.4 µM (inactive)
same,GI50,[38],0.163 µM (active)
same,GI50,[39],0.457 µM (active)
same,GI50,[40],0.046 µM (active)
same,GI50,[41],0.386 µM (active)
same,GI50,[42],2.47 µM (inactive)
same,GI50,[43],0.818 µM (active)
same,GI50,[44],0.258 µM (active)
same,GI50,[45],< 0.0177 µM (active)
same,GI50,[46],3.11 µM (inactive)
same,GI50,[47],1.15 µM (inactive)
same,GI50,[48],0.0509 µM (active)
same,GI50,[50],0.238 µM (active)
same,GI50,[51],0.826 µM (active)
same,GI50,[52],< 0.0196 µM (active)
same,GI50,[53],0.0283 µM (active)
same,GI50,[54],< 0.0225 µM (active)
same,GI50,[55],0.104 µM (active)
same,GI50,[56],19.6 µM (inactive)
same,GI50,[57],0.266 µM (active)
same,GI50,[58],0.364 µM (active)
